Source: US20080171706A1, “Anti-Adhesive Compounds to Prevent and Treat Bacterial Infections” (priority 2004, published 2008)

How the values were obtained:
Experiment in all cases: biochemical
FimHtrJ96 = target: T1, FimHtrJ96 (Escherichia coli, UniProt P08191); assay type: binding, uropathogenic E. coli strain J96; settings: for Kd: Table 3, [3H]-mannose displacement assay (mannose measured directly), read-out: KD J96; for ΔG° J96: Table 3, calculated from KD
T1 construct: coding for the lectin domain of FimH (residues 1-158) with a C-terminal 6-histidine tag; made in house; host or cells: E. coli HB101 (lacking the fim operon), periplasmic extract, plasmid pPKL241
Method: To measure the dissociation constant for FimH:alkyl or aryl-mannoside binding, two different binding assays were developed. The first binding assay uses [^3H]-mannose. The amount of radioactively labeled mannose bound to FimHtrJ96 was measured at six different concentrations of [^3H]-mannose, and a hyperbolic curve fitted to the resulting data (FIG. 1A). FimHtrJ96 corresponds to the carbohydrate (mannose) binding domain of FimH from the uropathogenic E. coli strain J96. The dissociation equilibrium constant was determined from this graph at the concentration of mannose […], which corresponds to occupation of half of the binding sites.
Surface Plasmon Resonance measurements were performed on a Biacore3000™. In a first experiment, the kinetic constants and maximal binding were determined for the FimH-antibody interaction. Next, a fixed concentration of FimH (close to the KD of the FimH-antibody interaction) in combination with varying concentrations of carbohydrate, were used to determine the dissociation equilibrium constant of the FimH-saccharide interaction in a competition experiment. Every measurement was repeated at least twice, including testing the variation between different protein and saccharide batches.
To eliminate the possibility of different binding strength for full length FimH and FimHtrJ96, the binding of alpha-D-mannose to FimC:FimH complex was also measured. […] The inhibition of [^3H]-mannose binding was used in a displacement assay to determine the dissociation constant for a synthetic butyl mannoside by measuring the amount of [^3H]-mannose bound to the protein in the presence of increasing amounts of the inhibitor (FIG. 1B). […] To investigate the effect of sequential addition of methyl groups to the O1 oxygen of D-mannose, a series of alkyl mannosides were synthesized and the dissociation constants determined using the [^3H]-mannose displacement assay and by surface plasmon resonance (Table 1).
Surface Plasmon Resonance measurements were performed on a Biacore3000™. The Fab fragments of a monoclonal antibody against FimH were covalently immobilised via lysines at 1000 Resonance Units (1000 pg ligand/mm^2) in flowcell Fc2 on a CM5 biasensor chip (BIAapplications Handbook, Biacore AB, Uppsala, Sweden). Immobilisation buffer was 100 mM NaAc pH 5.0 with 100 mM NaCl. The reference flowcell Fc1 was left blank.
Binding of FimH to the immobilized antibody was measured with a Biacore 3000 instrument in running buffer (phosphate buffered saline with 0.005% surfactant P20 and 3 mM EDTA), on both flowcells Fc1 and Fc2 simultaneously, at a flow rate of 30 μl/min and at 25° C. Complete dissociation of FimH was done with running buffer before starting a new binding cycle. For all measurements, the association time was 3 minutes, the dissociation time was 30 min. All binding cycles were performed in duplicate, including a zero concentration cycle of FimH (injection of running buffer).
In a first experiment, the kinetic constants, ka and kd, and the maximal binding Rmax, were determined for the FimH-antibody interaction (FimH concentrations (nM): 2000, 1000, 500, 250, 125, 62.5, 31.25, 15.625, 7.818, 3.911, 1.957, 0). All analyses were performed with the BIAeval software. A Langmuir binding isotherm with a 1:1 stoichiometry was fitted to the data, from which the kinetic constants and maximal binding were obtained.
In the next experiment, samples containing a fixed concentration of FimH (close to the KD of the FimH-antibody interaction) in combination with varying concentrations of saccharide, were used to determine the dissociation constant of the FimH-saccharide interaction in a competition experiment. First, ten-fold dilutions of the saccharide solution were used to determine the concentration range for binding of the saccharide to FimH.

FimHtrCl#4 = target: T2, FimHtrCl#4 (Escherichia coli, UniProt P08191, G94E/N91S/S99N/V48A); assay type: binding, E. coli UPEC (Cl#4) strain; settings: for Kd: Table 3, [3H]-mannose displacement assay (mannose measured directly), read-out: KD CI#4; for ΔG° CI#4: Table 3, calculated from KD
T2 construct: coding for the lectin domain of FimH (residues 1-158) with a C-terminal 6-histidine tag; made in house; host or cells: E. coli HB101 (lacking the fim operon), periplasmic extract, plasmid pMAS146
Method: (§1) To investigate if these variations reflect differences in sugar binding at the molecular level, the dissociation constants of a series of mannosides for the FimH lectin domain from a fecal (F18) and from a UPEC (Cl#4) strain were determined. […] For comparison, binding to FimHtrJ96 was also investigated. Both F18 and Cl#4 FimH lectin domains were cloned, expressed, and purified in the same way as FimHtrJ96 (Schembri et al., 2000). These two lectin domains differ from the lectin domain of FimHJ96 by substitutions Val27Ala, Asn70Ser and Ser78Asn. In addition, FimHCl#4 differs from the other two variants by a Gly73Glu substitution. […] Five different tri-mannosides corresponding to high-mannose substructures were synthesized, and their binding to FimHtrJ96, FimHtrF18 and FimHtrCl#4 measured using our [^3H]-mannose displacement assay (Table 3). Alpha-D-mannose binding was first directly measured for each of the FimH variants.
(§2) [^3H]alpha-D-mannose was obtained from Amersham. […] Syntheses of tri-mannosides was as reported earlier by Oscarson and co-workers (1993). Weighed amounts of tri-mannosides were dissolved in double distilled water to give stock solutions of 0.87 M man-(1,2)-man-(1,2)-man, 0.25 M man-(1,2)-man-(1,3)-man, 0.27 M man-(1,2)-man-(1,6)-man, 0.30 M man-(1,3)-man-(1,6)-man, 0.13 M man-(1,6)-man-(1,6)-man. Similarly, alkyl mannosides were dissolved in double distilled water to give stock solutions of 100 mM methyl mannoside, 59.8 mM ethyl mannoside, 45.9 mM propyl mannoside, 51.9 mM butyl mannoside, 17.3 mM pentyl mannoside, 20.8 mM hexyl mannoside, 15.3 mM heptyl mannoside, 15.2 mM octyl mannoside. pNPalphaMan and MeUmbalphaMan (6 mg each) were dissolved in 20 μl DMSO and diluted to 20 mM using double distilled water. Binding experiments were performed using six different concentrations of [^3H]-alpha-D-mannose (final concentrations 43.5 μM, 29.0 μM, 19.3 μM, 12.9 μM, 8.6 μM, 5.7 μM). FimHtrJ96 obtained by growing bacteria in minimal medium was used in all binding experiments. 180 μl protein at a concentration of about 500 nM was mixed with 20 μl of the radioactive ligand, and incubated at 37° C. for 20 min. To separate free ligand from bound, the mixture was rapidly filtrated through a Protran BA 85 Cellulose-nitrate filter (Schleicher & Schuell, Dassel, Germany), and washed once with 1 ml of ice-cold 1× PBS (phosphate buffered saline). Filter-bound radioactivity was measured by scintillation spectrometry within 24 hours. The displacement experiments were performed using six different concentrations (final concentrations in the range 0.0˜43.5 μM) of the inhibitor, in the presence of 43.5 μM [^3H]-alpha-D-mannose. 20 μl radioactive ligand, 20 μl inhibitor at decreasing concentrations, and 160 μl protein (500 nM) were mixed, and the experiments performed as above. All experiments were performed in duplicates. For determination of KD for α-D-mannose, a hyperbolic curve (y=P1x/(P2+x), where P2=KD) was fitted to the data. For the displacement experiments, the curve y=P1/(P2+x), where P2 is the concentration of the inhibitor displacing 50% of the labelled ligand, [I]0.5 was used instead. To calculate the inhibitor dissociation constant (KI) the Cheng & Prusoff equation (KI=[I]0.5/([L]/KL+1); KL is the constant of dissociation for the ligand) (Cheng and Prusoff, 1973), was used when both the concentration of the radioactive ligand (L) and the displacing agent (I) are in excess over the protein (LT>>PT;IT>>PT, T indicates total concentration). […] A plot of IT/((1−Y)*(LT/KL)−Y) against 1/Y gives a straight line with a slope of KI.

FimHtrF18 = target: T3, FimHtrF18 (Escherichia coli, UniProt P08191, N91S/S99N/V48A); assay type: binding, E. coli fecal (F18) strain; settings: for Kd: Table 3, [3H]-mannose displacement assay (mannose measured directly), read-out: KD F18; for ΔG° F18: Table 3, calculated from KD
T3 construct: coding for the lectin domain of FimH (residues 1-158) with a C-terminal 6-histidine tag; made in house; host or cells: E. coli HB101 (lacking the fim operon), periplasmic extract, plasmid pPKL316
Method: as §1, §2

T2 sequence (P08191 22-179 V48A/N91S/G94E/S99N): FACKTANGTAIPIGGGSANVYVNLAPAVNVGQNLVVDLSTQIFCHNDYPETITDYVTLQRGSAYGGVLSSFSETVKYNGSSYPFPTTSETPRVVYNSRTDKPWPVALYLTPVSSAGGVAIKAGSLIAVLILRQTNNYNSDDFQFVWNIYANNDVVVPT
T3 sequence (P08191 22-179 V48A/N91S/S99N): as the sequence (P08191 22-179 V48A/N91S/G94E/S99N) above, with E73G counted along it
T1 sequence (P08191 22-179): as the sequence (P08191 22-179 V48A/N91S/G94E/S99N) above, with A27V, S70N, E73G, N78S counted along it

Row | SMILES | Kd (FimHtrJ96) | ΔG° J96 (FimHtrJ96) | Kd (FimHtrCl#4) | ΔG° CI#4 (FimHtrCl#4) | Kd (FimHtrF18) | ΔG° F18 (FimHtrF18)
1 | OC[C@H]1O[C@H](O[C@@H]2[C@H](O)[C@@H](OC[C@H]3OC(O)[C@@H](O)[C@@H](O)[C@@H]3O)O[C@H](CO)[C@H]2O)[C@@H](O)[C@@H](O)[C@@H]1O (stereo partly drawn) [man-(1,3)-man-(1,6)-man] | 485 nM | -8.6 kcal/mol | 1030 nM | -8.5 kcal/mol | 730 nM | -8.7 kcal/mol
2 | OC[C@H]1O[C@H](OC[C@H]2O[C@H](OC[C@H]3OC(O)[C@@H](O)[C@@H](O)[C@@H]3O)[C@@H](O)[C@@H](O)[C@@H]2O)[C@@H](O)[C@@H](O)[C@@H]1O (stereo partly drawn) [man-(1,6)-man-(1,6)-man] | 1400 nM | -8.3 kcal/mol | 7500 nM | -7.3 kcal/mol | 5900 nM | -7.4 kcal/mol
